Test results published in the supplement of paper PMC10307832.

Tests used:
Test in all cases: relative viability (nuclei count vs DMSO), 5 days (fraction); higher = more cells survive
[1] = compound: CC1=C(C(=NN1)C)CC2=C(C3=C(S2)N(C(=O)N(C3=O)C)CC(C)C)C(=O)N4C[C@@H](CO4)O + COc1cccc2cc(-c3nc([C@H]4CC[C@H](C(=O)O)CC4)n4ncnc(N)c34)[nH]c12 [OSI-027] (partner 0.5 µM)
Outline: (§1)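 Relative viability equals treated-well nuclei counts divided by vehicle-well nuclei counts. Counts came from 4× images of lung cancer cell lines grown in 1536-well plates for 5 days after pin-tool dosing on the day after seeding. Dosing used one drug alone or a fixed anchor-drug dose plus five library-drug doses (not always all listed) in √10 steps, and values are medians of duplicate plates.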

[2] = compound: CC1=C(C(=NN1)C)CC2=C(C3=C(S2)N(C(=O)N(C3=O)C)CC(C)C)C(=O)N4C[C@@H](CO4)O + C[C@]1(O)C[C@@H](c2nc(-c3ccc4ccc(-c5ccccc5)nc4c3)c3c(N)nccn32)C1 [Linsitinib] (partner 1 µM)
Outline: as §1

[3] = compound: CC1=C(C(=NN1)C)CC2=C(C3=C(S2)N(C(=O)N(C3=O)C)CC(C)C)C(=O)N4C[C@@H](CO4)O + N=C(N)NC(=N)NCCc1ccccc1 [Phenformin] (partner 250 µM)
Outline: as §1

[4] = compound: Cc1ccccc1C(C(=O)NC1CCCCC1)N(C(=O)Cn1ccnc1C)c1cccc(F)c1 [IDH-C35] + CCNC(=O)c1noc(-c2cc(C(C)C)c(O)cc2O)c1-c1ccc(CN2CCOCC2)cc1 [Luminespib] (partner 0.01 µM)
Outline: as §1

Cell Line | relative viability ([1]; first compound 0.0025 µM) | relative viability ([1]; first compound 0.007906 µM) | relative viability ([1]; first compound 0.025 µM) | relative viability ([1]; first compound 0.07906 µM) | relative viability ([1]; first compound 0.25 µM) | relative viability ([2]; first compound 0.0025 µM) | relative viability ([2]; first compound 0.007906 µM) | relative viability ([2]; first compound 0.025 µM) | relative viability ([2]; first compound 0.07906 µM) | relative viability ([2]; first compound 0.25 µM) | relative viability ([3]; first compound 0.0025 µM) | relative viability ([3]; first compound 0.007906 µM) | relative viability ([3]; first compound 0.025 µM) | relative viability ([3]; first compound 0.07906 µM) | relative viability ([3]; first compound 0.25 µM) | relative viability ([4]; first compound 0.08 µM) | relative viability ([4]; first compound 0.253 µM) | relative viability ([4]; first compound 0.8 µM) | relative viability ([4]; first compound 2.53 µM) | relative viability ([4]; first compound 8 µM)
NCI-H441 | 0.601 | 0.634 | 0.707 | 0.665 | 0.677 | 0.59 | 0.491 | 0.493 | 0.53 | 0.615 | 0.902 | 0.943 | 0.799 | 0.847 | 0.865 | 0.26 | 0.306 | 0.293 | 0.293 | 0.399
LOU-NH91 | 0.719 | 0.714 | 0.715 | 0.84 | 0.727 | 0.958 | 0.843 | 1.06 | 1.12 | 1.02 | 0.763 | 0.752 | 0.731 | 0.844 | 0.733 | 0.331 | 0.368 | 0.297 | 0.354 | 0.328
NCI-H3122 | 0.912 | 0.765 | 0.927 | 1.04 | 0.989 | 1.04 | 1.08 | 0.99 | 0.976 | 0.947 | 0.385 | 0.365 | 0.364 | 0.392 | 0.375 | 0.0958 | 0.105 | 0.0707 | 0.106 | 0.0868
NCI-H460 | 0.718 | 0.821 | 0.683 | 0.648 | 0.779 | 0.736 | 0.577 | 0.789 | 1.09 | 1.19 | 0.526 | 0.586 | 0.491 | 0.553 | 0.515 | 0.0343 | 0.0424 | 0.0346 | 0.0408 | 0.0379
